# Reference: US20230203043A1, “NOVEL IMIDAZOPYRAZINE DERIVATIVES” (Hoffmann-La Roche Inc., priority 2020, published 2023)
# Counter-ions that a name gives are not always drawn.
# Test system: Acinetobacter baumannii ATCC17961
# Test: Antimicrobial susceptibility testing: 90% growth inhibitory concentration (IC90) determination in Iso-Sensitest broth, OD600 growth
# Type: cell-based
# Settings: Acinetobacter baumannii, ATCC17961, 16 h, read-out: A. baumannii ATCC 17961 IC90 (uM), strain ATCC 17961, OD600 growth over 16 h
# How it was run: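 Each strain, at about 5×10^(5) CFU/ml, was incubated with twofold dilutions of compound at 35±2° C for 16 h, and IC90 was calculated from kinetic optical density measured at 600 nm during logarithmic growth.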
row,SMILES,IC90 [µM]
1,"NCCNC(=O)NCCNC(=O)c1ccc(Nc2nccn3c(-c4c[nH]nc4C(F)(F)F)cnc23)cc1Cl [Example 222, N-[2-(2-aminoethylcarbamoylamino)ethyl]-2-chloro-4-[[3-[3-(trifluoromethyl)-1H-pyrazol-4-yl]imidazo[1,2-a]pyrazin-8-yl]amino]benzamide formate]",1.09
2,"Cc1cc(Nc2nccn3c(-c4c[nH]nc4C(F)(F)F)cnc23)ccc1C(=O)N1CCN(C(=O)[C@H]2CCNC[C@@H]2O)CC1 [Example 465, formic acid; [4-[(3R,4S)-3-hydroxypiperidine-4-carbonyl]piperazin-1-yl]-[2-methyl-4-[[3-[3-(trifluoromethyl)-1H-pyrazol-4-yl]imidazo[1,2-a]pyrazin-8-yl]amino]phenyl]methanone]",1.62
3,"CCc1cc(Nc2nccn3c(-c4cn(CC(F)F)nc4C(F)(F)F)cnc23)ccc1C(=O)NCC(=O)NC1CC(N)C1 (stereo not shown) [Example 642, N-[2-[(3-aminocyclobutyl)amino]-2-oxo-ethyl]-4-[[3-[1-(2,2-difluoroethyl)-3-(trifluoromethyl)pyrazol-4-yl]imidazo[1,2-a]pyrazin-8-yl]amino]-2-ethyl-benzamide formate]",0.232
4,"CCc1cc(Nc2nccn3c(-c4cn(CC(F)F)nc4C(F)(F)F)cnc23)ccc1C(=O)NCCNC(=O)[C@@H](C)N [Example 643, (R)-N-(2-(2-aminopropanamido)ethyl)-4-((3-(1-(2,2-difluoroethyl)-3-(trifluoromethyl)-1H-pyrazol-4-yl)imidazo[1,2-a]pyrazin-8-yl)amino)-2-ethylbenzamide formate]",0.232
5,"Cc1cc(Nc2nccn3c(-c4cn(CC#N)nc4C(F)(F)F)cnc23)ccc1C(=O)N1CCN(C(=O)[C@H]2C[C@H](O)CN2)CC1 [Example 426, formic acid; 2-[4-[8-[4-[4-[(2R,4S)-4-hydroxypyrrolidine-2-carbonyl]piperazine-1-carbonyl]-3-methylanilino]imidazo[1,2-a]pyrazin-3-yl]-3-(trifluoromethyl)pyrazol-1-yl]acetonitrile]",0.948
6,"N#CCn1cc(-c2cnc3c(Nc4ccc(C(=O)NCC(=O)N5CC(N)C5)c(Cl)c4)nccn23)c(C(F)(F)F)n1 [Example 713, N-[2-(3-aminoazetidin-1-yl)-2-oxo-ethyl]-2-chloro-4-[[3-[1-(cyanomethyl)-3-(trifluoromethyl)pyrazol-4-yl]imidazo[1,2-a]pyrazin-8-yl]amino]benzamide formate]",0.417
7,"CC#CCn1cc(-c2cnc3c(Nc4ccc(C(=O)NCC(=O)NCCN)c(Cl)c4)nccn23)c(C(F)(F)F)n1 [Example 89, N-[2-(2-aminoethylamino)-2-oxoethyl]-4-[[3-[1-but-2-ynyl-3-(trifluoromethyl)pyrazol-4-yl]imidazo[1,2-a]pyrazin-8-yl]amino]-2-chlorobenzamide formate]",0.573
8,"COCCn1cc(-c2cnc3c(Nc4ccc(C(=O)N5CCN(C(=O)N[C@H]6CCNC6)CC5)c(Cl)c4)nccn23)c(C(F)(F)F)n1 [Example 293, 4-[2-chloro-4-[[3-[1-(2-methoxyethyl)-3-(trifluoromethyl)pyrazol-4-yl]imidazo[1,2-a]pyrazin-8-yl]amino]benzoyl]-N-[(3S)-pyrrolidin-3-yl]piperazine-1-carboxamide formate]",0.429

# Same assay, conditions: Acinetobacter baumannii, ATCC17961, 16 h, strain ATCC 17961, OD600 growth over 16 h, read-out: A. baumannii ATCC 17961 IC90
row,SMILES,IC90 [µM]
1,"CCc1cc(Nc2nccn3c(-c4c[nH]nc4C(F)(F)F)cnc23)ccc1C(=O)NCCCCCN [Example 319, N-(5-aminopentyl)-2-ethyl-4-[[3-[3-(trifluoromethyl)-1H-pyrazol-4-yl]imidazo[1,2-a]pyrazin-8-yl]amino]benzamide hydrochloride]",0.438
2,"CCc1cc(Nc2nccn3c(-c4c[nH]nc4C(F)(F)F)cnc23)ccc1C(=O)N1CCC(CN)CC1 [Example 372, [4-(aminomethyl)piperidin-1-yl]-[2-ethyl-4-[[3-[3-(trifluoromethyl)-1H-pyrazol-4-yl]imidazo[1,2-a]pyrazin-8-yl]amino]phenyl]methanone hydrochloride]",0.957
3,"CCc1cc(Nc2nccn3c(-c4cn(CC(F)F)nc4C(F)F)cnc23)ccc1C(=O)N1CCN(C(=O)[C@H](C)N)CC1 [Example 775, (S)-2-amino-1-(4-(4-((3-(1-(2,2-difluoroethyl)-3-(difluoromethyl)-1H-pyrazol-4-yl)imidazo[1,2-a]pyrazin-8-yl)amino)-2-ethylbenzoyl)piperazin-1-yl)propan-1-one]",0.988
4,"CCc1cc(Nc2nccn3c(-c4cn(CC(F)F)nc4C(F)(F)F)cnc23)ccc1C(=O)NCC(=O)N1CC2CC1CN2 (stereo not shown) [Example 538, N-2-(2,5-diazabicyclo[2.2.1]heptan-2-yl)-2-oxo-ethyl]-4-[[3-[1-(2,2-difluoroethyl)-3-(trifluoromethyl)pyrazol-4-yl]imidazo[1,2-a]pyrazin-8-yl]amino]-2-ethyl-benzamide formate]",0.261
5,"CCc1cc(Nc2nccn3c(-c4c[nH]nc4C(F)(F)F)cnc23)ccc1C(=O)NCCNC(=O)N1CCC(N)CC1 [Example 568, 4-amino-N-(2-(2-ethyl-4-((3-(3-(trifluoromethyl)-1H-pyrazol-4-yl)imidazo[1,2-a]pyrazin-8-yl)amino)benzamido)ethyl) piperidine-1-carboxamide formate]",0.46
6,"CCc1cc(Nc2nccn3c(-c4cn(CCCC#N)nc4C(F)(F)F)cnc23)ccc1C(=O)NC [Example 343, 4-[[3-[1-(3-cyanopropyl)-3-(trifluoromethyl)pyrazol-4-yl]imidazo[1,2-a]pyrazin-8-yl]amino]-2-ethyl-N-methylbenzamide]",0.546
7,"Cc1cc(Nc2nccn3c(-c4cn(CC#N)nc4C(F)(F)F)cnc23)cc(F)c1C(=O)N1CCN(C(=O)[C@H]2CC[C@H](O)N2)CC1 [Example 715, 2-(4-(8-((3-fluoro-4-(4-((2R,5S)-5-hydroxypyrrolidine-2-carbonyl)piperazine-1-carbonyl)-5-methylphenyl)amino)imidazo[1,2-a]pyrazin-3-yl)-3-(trifluoromethyl)-1H-pyrazol-1-yl) acetonitrile]",0.422
8,"CCc1cc(Nc2nccn3c(-c4cn(CC(F)F)nc4C(F)(F)F)cnc23)ccc1C(=O)NCCNC(=O)[C@H]1CC[C@@H](N)C1 [Example 495, N-(2-((1S,3R)-3-aminocyclopentane-1-carboxamido)ethyl)-4-((3-(1-(2,2-difluoroethyl)-3-(trifluoromethyl)-1H-pyrazol-4-yl)imidazo[1,2-a]pyrazin-8-yl)amino)-2-ethylbenzamide formate]",0.173
9,"C#CCn1cc(-c2cnc3c(Nc4ccc(C(=O)N[C@@H](C)CN)c(CC)c4)nccn23)c(C(F)(F)F)n1 [Example 55, N-[(2S)-1-aminopropan-2-yl]-2-ethyl-4-[[3-[1-prop-2-ynyl-3-(trifluoromethyl)pyrazol-4-yl]imidazo[1,2-a]pyrazin-8-yl]amino]benzamide]",0.167
10,"C[C@H](N)C(=O)N1CCN(C(=O)c2ccc(Nc3nccn4c(-c5c[nH]nc5C(F)(F)F)cnc34)cc2Cl)CC1 [Example 206, (2S)-2-amino-1-[4-[2-chloro-4-[[3-[3-(trifluoromethyl)-1H-pyrazol-4-yl]imidazo[1,2-a]pyrazin-8-yl]amino]benzoyl]piperazin-1-yl]propan-1-one]",0.169
11,"NCCNC(=O)CNC(=O)c1ccc(Nc2nccn3c(-c4c[nH]nc4C(F)(F)F)cnc23)cc1Cl [Example 166, N-[2-(2-aminoethylamino)-2-oxoethyl]-2-chloro-4-[[3-[3-(trifluoromethyl)-1H-pyrazol-4-yl]imidazo[1,2-a]pyrazin-8-yl]amino]benzamide]",4.48
